Measured values taken from PubChem BioAssay (NCI).
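Cells were grown in 96-well plates and exposed to each compound for 48 hours at five concentrations; endpoints were interpolated linearly between bracketing concentrations, or set to the highest concentration if not reached. TGI is the concentration that stops growth completely.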

Legend:
Experiment in all cases: NCI-60 cell line screen, 48 h
CCRF-CEM leukemia = test system: CCRF-CEM leukemia
SNB-78 CNS = test system: SNB-78 CNS
IGROV1 ovarian = test system: IGROV1 ovarian
UACC-62 melanoma = test system: UACC-62 melanoma
OVCAR-4 ovarian = test system: OVCAR-4 ovarian
UACC-257 melanoma = test system: UACC-257 melanoma
ACHN renal = test system: ACHN renal
OVCAR-8 ovarian = test system: OVCAR-8 ovarian
HCC-2998 colon = test system: HCC-2998 colon
UO-31 renal = test system: UO-31 renal
OVCAR-3 ovarian = test system: OVCAR-3 ovarian
DMS 273 small cell lung = test system: DMS 273 small cell lung
SK-OV-3 ovarian = test system: SK-OV-3 ovarian
HOP-18 NSCLC = test system: HOP-18 NSCLC
HT29 colon = test system: HT29 colon
HL-60(TB) leukemia = test system: HL-60(TB) leukemia
SK-MEL-2 melanoma = test system: SK-MEL-2 melanoma
SF-295 CNS = test system: SF-295 CNS
SF-539 CNS = test system: SF-539 CNS
M14 melanoma = test system: M14 melanoma
DMS 114 small cell lung = test system: DMS 114 small cell lung
SF-268 CNS = test system: SF-268 CNS
LOX IMVI melanoma = test system: LOX IMVI melanoma
SN12C renal = test system: SN12C renal
SNB-75 CNS = test system: SNB-75 CNS
KM12 colon = test system: KM12 colon
OVCAR-5 ovarian = test system: OVCAR-5 ovarian
KM20L2 colon = test system: KM20L2 colon
NCI-H522 lung = test system: NCI-H522 lung
EKVX NSCLC = test system: EKVX NSCLC
NCI-H460 lung = test system: NCI-H460 lung
DLD-1 colon = test system: DLD-1 colon
SK-MEL-28 melanoma = test system: SK-MEL-28 melanoma
COLO 205 colon = test system: COLO 205 colon
CAKI-1 renal = test system: CAKI-1 renal
M19-MEL melanoma = test system: M19-MEL melanoma
SK-MEL-5 melanoma = test system: SK-MEL-5 melanoma
RXF 393 renal = test system: RXF 393 renal
SNB-19 CNS = test system: SNB-19 CNS
LXFL 529 NSCLC = test system: LXFL 529 NSCLC
MALME-3M melanoma = test system: MALME-3M melanoma
SW-620 colon = test system: SW-620 colon
786-0 renal = test system: 786-0 renal
A549 NSCLC = test system: A549 NSCLC
K-562 leukemia = test system: K-562 leukemia
HCT-15 colon = test system: HCT-15 colon
XF 498 CNS = test system: XF 498 CNS
U251 CNS = test system: U251 CNS
NCI-H226 lung = test system: NCI-H226 lung
HCT-116 colon = test system: HCT-116 colon
NCI-H23 lung = test system: NCI-H23 lung
TK-10 renal = test system: TK-10 renal
HOP-92 NSCLC = test system: HOP-92 NSCLC
HOP-62 NSCLC = test system: HOP-62 NSCLC
A498 renal = test system: A498 renal
MOLT-4 leukemia = test system: MOLT-4 leukemia
RPMI-8226 leukemia = test system: RPMI-8226 leukemia

Measured: TGI

CCCCCCCCCc1cc(=O)c2ccc(OCc3ccccc3)cc2o1
72.3 µM: SNB-75 CNS
46.4 µM: HL-60(TB) leukemia
13.4 µM: CAKI-1 renal
not listed: A498 renal | MOLT-4 leukemia | RPMI-8226 leukemia
> 100 µM: all other assays above

CNS(=O)(=O)NN(C)S(=O)(=O)c1ccc(F)cc1
not listed: SNB-78 CNS | M19-MEL melanoma
> 100 µM: all other assays above
